Data reported in patent US10577363B2, “Substituted piperidine compounds” (EPIZYME, INC., priority 2014, dated 2020).

Experiments:
[1] = biological target: T1, SMYD3 (Homo sapiens (Human), UniProt Q9H7B4); assay: SMYD3 biochemical assay (SPA, 3H-SAM methylation of MEKK2 protein substrate); conditions: read-out: SMYD3 Biochem IC50 (μM)*
Outline: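 Tritium incorporation into GST-MEKK2 is counted by scintillation proximity after citric acid bead capture. Native human SMYD3 is preincubated with test compound for 30 min at room temperature at pH 8.0 (Tris-Cl, TCEP, BSG, Tween 20) before 3H-SAM and substrate are added; cold SAM at 100 uM final stops turnover.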

[2] = biological target: T1, SMYD3; assay: SMYD3 cell assay (Trimethyl-MEKK2 In-Cell Western in 293T/17 cells); format: cell-based; conditions: 293T/17 cells; read-out: SMYD3 Cell IC50 (μM)*
Outline: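 In-Cell Western ratio of trimethyl-Lys260 MEKK2 to anti-flag signal; percent inhibition from DMSO and maximum-inhibition controls, IC50 by non-linear regression, triplicates.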

T1 sequence (Q9H7B4 whole entry): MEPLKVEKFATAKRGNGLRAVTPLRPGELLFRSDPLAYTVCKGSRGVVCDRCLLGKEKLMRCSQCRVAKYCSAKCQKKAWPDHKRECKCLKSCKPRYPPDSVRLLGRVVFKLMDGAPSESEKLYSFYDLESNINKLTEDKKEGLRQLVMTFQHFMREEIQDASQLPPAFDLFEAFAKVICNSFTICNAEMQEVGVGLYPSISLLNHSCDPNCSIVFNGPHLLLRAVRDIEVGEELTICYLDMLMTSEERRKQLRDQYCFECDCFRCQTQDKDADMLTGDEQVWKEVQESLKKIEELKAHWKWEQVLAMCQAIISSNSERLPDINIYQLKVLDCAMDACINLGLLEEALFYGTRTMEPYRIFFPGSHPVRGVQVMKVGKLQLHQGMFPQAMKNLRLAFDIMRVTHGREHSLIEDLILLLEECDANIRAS

| SMILES | IC50 [1] [µM] | IC50 [2] [µM] |
| --- | --- | --- |
| CC(=O)Nc1ccc(S(=O)(=O)N2[C@@H]3CC[C@H]2C[C@@H](NC(=O)c2cc(C4CC4)on2)C3)cc1 [compound 403, N-((1R,3r,5S)-8-((4-acetamidophenyl)sulfonyl)-8-azabicyclo[3.2.1]octan-3-yl)-5-cyclopropylisoxazole-3-carboxamide] | 10 | > 10 |
| O=C(N[C@@H]1C[C@H]2CC[C@@H](C1)N2S(=O)(=O)c1ccc2[nH]c(=O)oc2c1)c1cc(C2CC2)on1 [compound 404, 5-cyclopropyl-N-((1R,3s,5S)-8-((2-oxo-2,3-dihydrobenzo[d]oxazol-6-yl)sulfonyl)-8-azabicyclo[3.2.1]octan-3-yl)isoxazole-3-carboxamide] | 1.4 | 2.92 |
| O=C(N[C@H]1C[C@H]2CC[C@@H](C1)N2S(=O)(=O)c1ccc2[nH]c(=O)oc2c1)c1cc(C2CC2)on1 [compound 405, 5-cyclopropyl-N-((1R,3r,5S)-8-((2-oxo-2,3-dihydrobenzo[d]oxazol-6-yl)sulfonyl)-8-azabicyclo[3.2.1]octan-3-yl)isoxazole-3-carboxamide] | 9.39 | > 10 |
| O=C(N[C@@H]1CCN(S(=O)(=O)CCN2CCCC2)[C@H](Cc2ccccc2)C1)c1cc(C2CC2)on1 [compound 407, N-((2R,4R)-2-benzyl-1-((2-(pyrrolidin-1-yl)ethyl)sulfonyl)piperidin-4-yl)-5-cyclopropylisoxazole-3-carboxamide] | 3.81 | > 10 |
| O=C(NC1CC2CCCC(C1)N2S(=O)(=O)CCCN1CCOCC1)c1cc(C2CC2)on1 (centres unmarked) [compound 410, 5-cyclopropyl-N-(9-((3-morpholinopropyl)sulfonyl)-9-azabicyclo[3.3.1]nonan-3-yl)isoxazole-3-carboxamide] | 6.32 | > 10 |
| COCCN(C)c1ccc(S(=O)(=O)N2CC[C@H](NC(=O)c3cc(C4CC4)on3)C[C@@H]2C)cn1 [compound 412, 5-cyclopropyl-N-((2S,4S)-1-((6-((2-methoxyethyl)(methyl)amino)pyridin-3-yl)sulfonyl)-2-methylpiperidin-4-yl)isoxazole-3-carboxamide] | 2.12 | 8.22 |
| COCCNc1ccc(S(=O)(=O)N2CC[C@H](NC(=O)c3cc(C4CC4)on3)C[C@@H]2C)cn1 [compound 413, 5-cyclopropyl-N-((2S,4S)-1-((6-((2-methoxyethyl)amino)pyridin-3-yl)sulfonyl)-2-methylpiperidin-4-yl)isoxazole-3-carboxamide] | 1.48 | 4.51 |
| C[C@H]1C[C@@H](NC(=O)c2cc(C3CC3)on2)CCN1S(=O)(=O)c1ccc(N(C)CCN2CCOCC2)nc1 [compound 414, 5-cyclopropyl-N-((2S,4S)-2-methyl-1-((6-(methyl(2-morpholinoethyl)amino)pyridin-3-yl)sulfonyl)piperidin-4-yl)isoxazole-3-carboxamide] | 0.889 | 2.61 |
| C[C@H]1C[C@H](NC(=O)c2cc(C3CC3)on2)CCN1S(=O)(=O)c1ccc(NCCN)nc1 [compound 415, N-((2S,4R)-1-((6-((2-aminoethyl)amino)pyridin-3-yl)sulfonyl)-2-methylpiperidin-4-yl)-5-cyclopropylisoxazole-3-carboxamide] | 0.135 | 5.62 |
| C[C@H]1CN(C(=O)[C@H]2CC[C@H](N)CC2)[C@@H](C)C[C@H]1NC(=O)c1cc(C2CC2)on1 [compound 419, N-((2S,4R,5S)-1-((1r,4S)-4-aminocyclohexane-1-carbonyl)-2,5-dimethylpiperidin-4-yl)-5-cyclopropylisoxazole-3-carboxamide] | 1.95 | > 10 |
| NCCCS(=O)(=O)N1CC[C@H](NC(=O)c2cc(C3CC3)on2)C[C@H]1Cc1ccccc1 [compound 423, N-((2R,4S)-1-((3-aminopropyl)sulfonyl)-2-benzylpiperidin-4-yl)-5-cyclopropylisoxazole-3-carboxamide] | 0.25 | 1.86 |
| NCCCS(=O)(=O)N1CC[C@H](NC(=O)c2cc(C3CC3)on2)C[C@@H]1Cc1ccccc1 [compound 424, N-((2S,4S)-1-((3-aminopropyl)sulfonyl)-2-benzylpiperidin-4-yl)-5-cyclopropylisoxazole-3-carboxamide] | 0.228 | 1.8 |
| CC1CC(NC(=O)c2cc(C3CC3)on2)CCN1C(=O)Cc1ncc[nH]1 (centres unmarked) [compound 427, N-(1-(2-(1H-imidazol-2-yl)acetyl)-2-methylpiperidin-4-yl)-5-cyclopropylisoxazole-3-carboxamide] | > 10 | > 10 |
| C[C@@H]1C[C@H](NC(=O)c2cc(C3CC3)on2)CCN1S(=O)(=O)c1c[nH]cn1 [compound 428, N-((2R,4R)-1-((1H-imidazol-4-yl)sulfonyl)-2-methylpiperidin-4-yl)-5-cyclopropylisoxazole-3-carboxamide] | 0.732 | 2.58 |
| CC(=O)Nc1ccc(S(=O)(=O)N2[C@@H]3CC[C@H]2C[C@H](NC(=O)c2cc(C4CC4)on2)C3)cc1 [compound 430, N-((1R,3s,5S)-8-((4-acetamidophenyl)sulfonyl)-8-azabicyclo[3.2.1]octan-3-yl)-5-cyclopropylisoxazole-3-carboxamide] | 3.66 | 4.52 |
| O=C(Nc1ccc(S(=O)(=O)N2[C@@H]3CC[C@H]2C[C@@H](NC(=O)c2cc(C4CC4)on2)C3)cc1)c1ccncc1 [compound 431, 5-cyclopropyl-N-((1R,3r,5S)-8-((4-(isonicotinamido)phenyl)sulfonyl)-8-azabicyclo[3.2.1]octan-3-yl)isoxazole-3-carboxamide] | > 10 | > 10 |
| O=C1Cc2cc(S(=O)(=O)N3[C@@H]4CC[C@H]3C[C@@H](NC(=O)c3cc(C5CC5)on3)C4)c(Cl)cc2N1 [compound 432, N-((1R,3r,5S)-8-((6-chloro-2-oxoindolin-5-yl)sulfonyl)-8-azabicyclo[3.2.1]octan-3-yl)-5-cyclopropylisoxazole-3-carboxamide] | 6.3 | > 10 |
| O=C1Cc2cc(S(=O)(=O)N3[C@@H]4CC[C@H]3C[C@@H](NC(=O)c3cc(C5CC5)on3)C4)ccc2N1 [compound 433, 5-cyclopropyl-N-((1R,3r,5S)-8-((2-oxoindolin-5-yl)sulfonyl)-8-azabicyclo[3.2.1]octan-3-yl)isoxazole-3-carboxamide] | 4.19 | > 10 |
| O=C(N[C@H]1C[C@H]2CC[C@@H](C1)N2S(=O)(=O)c1ccc2[nH]c(=O)[nH]c2c1)c1cc(C2CC2)on1 [compound 434, 5-cyclopropyl-N-((1R,3r,5S)-8-((2-oxo-2,3-dihydro-1H-benzo[d]imidazol-5-yl)sulfonyl)-8-azabicyclo[3.2.1]octan-3-yl)isoxazole-3-carboxamide] | 2.41 | > 10 |
| O=C(N[C@@H]1C[C@H]2CC[C@@H](C1)N2S(=O)(=O)CCN1CCCC1)c1cc(C2CC2)on1 [compound 435, 5-cyclopropyl-N-((1R,3s,5S)-8-((2-(pyrrolidin-1-yl)ethyl)sulfonyl)-8-azabicyclo[3.2.1]octan-3-yl)isoxazole-3-carboxamide] | 2 | 5.59 |
| O=C(N[C@H]1CCN(S(=O)(=O)CCN2CCCC2)[C@@H](Cc2ccccc2)C1)c1cc(C2CC2)on1 [compound 437, N-((2S,4S)-2-benzyl-1-((2-(pyrrolidin-1-yl)ethyl)sulfonyl)piperidin-4-yl)-5-cyclopropylisoxazole-3-carboxamide] | 1 | 4.62 |
| O=C(N[C@@H]1CCN(S(=O)(=O)CCCN2CCOCC2)[C@@H](Cc2ccccc2)C1)c1cc(C2CC2)on1 [compound 438, N-((2S,4R)-2-benzyl-1-((3-morpholinopropyl)sulfonyl)piperidin-4-yl)-5-cyclopropylisoxazole-3-carboxamide] | 9.18 | > 10 |
| O=C(N[C@@H]1CCN(S(=O)(=O)CCCN2CCOCC2)[C@H](Cc2ccccc2)C1)c1cc(C2CC2)on1 [compound 439, N-((2R,4R)-2-benzyl-1-((3-morpholinopropyl)sulfonyl)piperidin-4-yl)-5-cyclopropylisoxazole-3-carboxamide] | > 10 | > 10 |
| O=C(N[C@@H]1C[C@H]2CC[C@@H](C1)N2S(=O)(=O)CCN1CCOCC1)c1cc(C2CC2)on1 [compound 440, 5-cyclopropyl-N-((1R,3s,5S)-8-((2-morpholinoethyl)sulfonyl)-8-azabicyclo[3.2.1]octan-3-yl)isoxazole-3-carboxamide] | > 10 | > 10 |
| O=C(N[C@H]1C[C@H]2CC[C@@H](C1)N2S(=O)(=O)CCN1CCOCC1)c1cc(C2CC2)on1 [compound 441, 5-cyclopropyl-N-((1R,3r,5S)-8-((2-morpholinoethyl)sulfonyl)-8-azabicyclo[3.2.1]octan-3-yl)isoxazole-3-carboxamide] | 1.61 | 3.67 |
| O=C(NC1CC2CCCC(C1)N2S(=O)(=O)CCN1CCCC1)c1cc(C2CC2)on1 (centres unmarked) [compound 442, 5-cyclopropyl-N-(9-((2-(pyrrolidin-1-yl)ethyl)sulfonyl)-9-azabicyclo[3.3.1]nonan-3-yl)isoxazole-3-carboxamide] | 1.11 | 4.55 |
| O=C(NC1CC2CCCC(C1)N2S(=O)(=O)CCN1CCOCC1)c1cc(C2CC2)on1 (centres unmarked) [compound 443, 5-cyclopropyl-N-(9-((2-morpholinoethyl)sulfonyl)-9-azabicyclo[3.3.1]nonan-3-yl)isoxazole-3-carboxamide] | > 10 | > 10 |
| CNCCCS(=O)(=O)N1CC[C@H](NC(=O)c2cc(C3CC3)on2)C[C@@H]1C [compound 444, 5-cyclopropyl-N-((2S,4S)-2-methyl-1-((3-(methylamino)propyl)sulfonyl)piperidin-4-yl)isoxazole-3-carboxamide] | 0.0131 | 0.181 |
